The values that follow come from ChEMBL document CHEMBL1127701, “Antineoplastic agents. 278. Isolation and structure of axinastatins 2 and 3 from a western Caroline Island marine sponge” (1994).

Holding throughout (format): functional
One assay relates to NCI-H460. Put plainly: Tested for cytostatic activity against lung-NSC […] cell line. As to conditions: Homo sapiens.
For another assay, the system named is OVCAR-3. Put plainly: Tested for cytostatic activity against ovarian OVCAR-3 cell line. As to conditions: Homo sapiens.
In the next assay the test system is P388. Put plainly: Tested for in vitro cytotoxicity against the murine leukemia P388 cell line. Conditions: Mus musculus, read-out: ED50 (the source's name).
For another assay, the system named is A498. Nature of the assay: Tested for cytostatic activity against renal A498 cell line. As to conditions: Homo sapiens.
In the next assay the test system is SK-MEL-5. Nature of the assay: Tested for cytostatic activity against melanoma SK-MEL-5 cell line. Conditions: Homo sapiens.
A further assay relates to SF-295. Nature of the assay: Tested for cytostatic activity against CNS SF-295 cell line. Conditions: Homo sapiens.
The next assay deals with KM-20L2. Put plainly: Tested for cytostatic activity against colon KM20L2 cell line. Conditions: Homo sapiens.

Molecules are shown by their SMILES. Values after ≈ are worked out from the molar mass of the structure shown. Where a SMILES comes first, the peptide text is derived from it.

The term GI50 denotes the concentration that inhibits growth by half. A higher GI50 goes with less potent growth inhibition. `CC(C)C[C@@H]1NC(=O)[C@H](C(C)C)NC(=O)[C@H](Cc2ccccc2)NC(=O)[C@@H]2CCCN2C(=O)[C@H](CC(N)=O)NC(=O)[C@H](C(C)C)NC(=O)[C@@H]2CCCN2C1=O` (cyclo(FVLPVNP)): the 50% growth inhibitory concentration (GI50) with NCI-H460 is 0.19 µg/mL (≈ 0.248 µM); in the assay on OVCAR-3 it was 0.058 µg/mL (≈ 0.0756 µM); with A498, 0.38 µg/mL (≈ 0.495 µM); in the assay on SK-MEL-5 it was 0.068 µg/mL (≈ 0.0887 µM); with SF-295 it was 0.35 µg/mL (≈ 0.456 µM); with KM-20L2, 0.23 µg/mL (≈ 0.3 µM). Besides, in the assay on P388, the EC50 came out at 0.02 µg/mL (≈ 0.0261 µM).
For the compound `CC[C@H](C)[C@@H]1NC(=O)[C@H](Cc2ccccc2)NC(=O)[C@@H]2CCCN2C(=O)[C@H](CC(N)=O)NC(=O)[C@H](C(C)C)NC(=O)[C@@H]2CCCN2C(=O)[C@H](CC(C)C)NC1=O` (cyclo(FILPVNP)), the GI50 in the assay on NCI-H460 is 0.033 µg/mL (≈ 0.0423 µM); with OVCAR-3, 0.0072 µg/mL (≈ 0.00922 µM); with A498, 0.11 µg/mL (≈ 0.141 µM); in the assay with SK-MEL-5 it was 0.012 µg/mL (≈ 0.0154 µM); with SF-295, 0.18 µg/mL (≈ 0.23 µM); in the assay on KM-20L2, 0.055 µg/mL (≈ 0.0704 µM).
